Where a name gives a salt, the structure may show the parent alone.
With `CN(C)C(=O)CN(c1cccc(N/C(=C2\C(=O)Oc3ccccc32)c2ccc(CN)c(F)c2)c1)S(C)(=O)=O` (as salt: HCl) [Example 101] the melting point was 253 to 254 °C.
For `Cc1nc(-c2ccc(N/C(=C3\C(=O)Oc4ccccc43)c3ccc(CN)c(F)c3)cc2)cs1` [Example 102], the melting point was 196 to 197 °C.
Work on `CN1C(=O)/C(=C(\Nc2ccc(-c3cn(C)cn3)cc2)c2ccc(CN)cc2)c2ccccc21` [Example 36, 3-{(4-aminomethylphenyl)-[4-(1-methyl-1H-imidazol-4-yl)phenylamino]methylene}-1-methyl-1,3-dihydroindol-2-one] yielded a melting point of 214 to 217 °C.
